A short description of assay [1]: In vitro enzyme assay to detect hydrolysis of chlorophenol red-beta-D-[…] directly proportional to the number of Toxoplasma stably expressing beta-galactosidase. The class given is functional, organism-based, Toxoplasma gondii. To be noted: for IC50: Toxoplasma gondii.
A short description of assay [2]: microbe, parasite or virus in culture. To be noted: Mycobacterium tuberculosis, 96 h, read-out: pIC50 (converted).
The next assay concerns Schistosoma mansoni. The assay can be described thus: High throughput screening of compounds against Schistosoma mansoni motility. The class given is functional. Further details: dose or concentration left out as unconfirmed.
The nature of assay [3]: microbe, parasite or virus in culture. To be noted: Mycobacterium tuberculosis, 72 h, read-out: pIC50 (converted).
The subject of a further assay is Plasmodium falciparum. The assay can be described thus: Calibr Malaria Delayed Death Assay SOP. The class given is functional, organism-based.
The next assay has as its target ClpP1P2 (Mycobacterium tuberculosis (strain ATCC 25618 / H37Rv), UniProt P9WPC3+P9WPC5). The assay can be described thus: in vitro assay to detect presence of AMC directly proportional to the activity of ClpP1P2. GHDDI collaboration. Type of assay: functional.

A word on the pIC50: it is the IC50 on a negative log10 scale, so that one unit is a factor of ten.

Sequence of ClpP1P2 (P9WPC5 whole entry): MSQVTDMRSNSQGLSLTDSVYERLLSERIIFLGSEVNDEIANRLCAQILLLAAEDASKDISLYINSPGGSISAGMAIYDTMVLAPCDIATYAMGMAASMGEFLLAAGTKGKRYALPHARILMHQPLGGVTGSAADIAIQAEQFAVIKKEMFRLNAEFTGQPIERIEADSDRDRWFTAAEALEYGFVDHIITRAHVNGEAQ
Sequence of ClpP1P2 (P9WPC3 whole entry): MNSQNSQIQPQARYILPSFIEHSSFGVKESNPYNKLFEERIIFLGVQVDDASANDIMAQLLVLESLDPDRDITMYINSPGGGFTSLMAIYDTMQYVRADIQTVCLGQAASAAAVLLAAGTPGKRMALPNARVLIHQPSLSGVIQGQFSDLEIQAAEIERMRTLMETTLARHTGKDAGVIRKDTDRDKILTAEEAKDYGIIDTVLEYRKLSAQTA

As for `CCNc1ncc2c(n1)CN(c1cccc(OC)c1)C2=O`, the IC50 in assay [1] is above 50.1 µM.
The compound `Cc1ccc(C(=O)N2CCN(C(C)C(N)=O)CC2)s1` (centres undefined) had an IC50 in assay [1] above 50.1 µM.
With `O=C(NCCn1cnc(C2CCCC2)cc1=O)NCc1cccs1`, in assay [1], the IC50 was 7.44 µM.
Take `COc1c(N)c(C)nn1C`: the IC50 in assay [1] was above 50.1 µM.
In assay [1], `COC(=O)c1cnc2[nH]nc(C)c2c1` showed an IC50 above 50.1 µM.
In assay [1], `CCCc1nc2c(c(C)c(C)n2Cc2ccccn2)c(N)c1CC` had a pIC50 of 4.935 and an IC50 of 10.4 µM.
`CCn1nc(C)c2nc(C(C)C)nc(NCCCn3cccn3)c21` showed an IC50 in assay [1] of 35.2 µM.
`CC(C)c1ocnc1C(=O)Nc1cccc(Cn2ccccc2=O)c1` had an IC50 in assay [1] above 50.1 µM.
The same measure, in the same setting: the result for `Cc1cc(C(=O)Nc2cnn(CC(F)(F)F)c2)nc(N(C)C)n1` reads above 50.1 µM.
Same read-out and setting: for `CCn1ccc(-c2cc(NCCCOc3ccccc3C)nc(C)n2)n1` the value was 11.7 µM; for `Cn1ccc2ccc(NS(=O)(=O)C3CC3)cc2c1=O`, above 50.1 µM.
In assay [1], `CC(C(=O)Nc1sccc1C(N)=O)N(C)CCOc1ccccc1` (centres undefined) had a pIC50 of 5.826 and an IC50 of 2.24 µM.
In assay [1], `COc1ccccc1N1CCCC(N)C1` (centres undefined) had an IC50 above 50.1 µM.
In assay [1], `Cc1noc(CCCNC(=O)c2ccon2)n1` showed an IC50 above 50.1 µM.
With `Cc1ccc(CN2Cc3nnn(C)c3C(COCc3ccccc3)C2)s1.O=C(O)C(F)(F)F` (centres undefined), in assay [1], the pIC50 came to 4.987 and the IC50 was 7.69 µM.
For the compound `CC(C)S(=O)(=O)N1CCN(C(=O)c2cnn(C)c2Cl)CC1`, in assay [1], the IC50 was above 50.1 µM.
Turning to `N#Cc1ccc(C2NC(=O)c3cccnc3N2)cc1` (centres undefined), the IC50 in assay [1] was above 50.1 µM.
In assay [1], `Cc1cccc(CN2CCc3nnc(CN4CCCCC4)n3CC2)n1` had an IC50 above 50.1 µM.
As to `CSC(C)C(=O)N1CCCN(c2cccnn2)CC1` (centres undefined), the IC50 in assay [1] is above 50.1 µM.
Turning to `Cc1nc([C@H]2CCCN2)cs1`, the IC50 in assay [1] is above 50.1 µM.
Same read-out and setting: for `Cc1ocnc1C(=O)Nc1ccc2c(c1)NCCC2` the value was above 50.1 µM; for `CS(=O)(=O)CCN1CCC(C(N)=O)CC1`, above 50.1 µM.
For the compound `CNC(=O)C1(N(C)CCc2ccccc2)Cc2ccccc2C1`, in assay [1], the IC50 is 11.3 µM.
For the compound `O=C(NC1CCCC1)N1CCCC(c2nccn2Cc2ccncc2)C1` (centres undefined), the IC50 in assay [2] was above 50.1 µM. Also, the “Percent Effect” value in the assay with Schistosoma mansoni was -2.761%.
For the compound `COc1ccc(C2CCCN2S(=O)(=O)N(C)CC(C)C)cc1` (centres undefined), the IC50 is 13.2 µM in assay [2] and 31.2 µM in assay [3]. In addition, the “Percent Effect” value in the assay on Schistosoma mansoni is reported as 29.94%.
For `CCCc1nnsc1C(=O)NCC1CCN(c2ccccn2)CC1` the same measures were 30.8 µM, above 50.1 µM and -128.4%.
As to `O=C(Nc1cccnc1)N1CCC(n2ccc(C(F)(F)F)n2)CC1`, the IC50 in assay [2] is above 50.1 µM; in assay [3] it was 1.07 µM. Moreover, the “Percent Effect” value in the assay with Schistosoma mansoni is -86.87%.
`CN(Cc1nccs1)c1nc(-c2ccccn2)nc2c1CCNCC2` yielded a pIC50 in the assay with Plasmodium falciparum of 6.065. In the assay with Plasmodium falciparum (Plasmodium falciparum), this compound had an IC50 of 0.882 µM. Further, the “Percent Effect” value in the assay with Schistosoma mansoni was -21.71%.
On to `Cn1ncc2c(NCCC34CCCN3CCC4)nc(C3CCCC3)nc21`, for which the IC50 was 26.8 µM in assay [2] and 42.3 µM in assay [3]. Moreover, the “Percent Effect” value in the assay with Schistosoma mansoni was determined as 79%.
As to `Cc1cnn(CC2CCCN2Cc2coc(-c3ccccc3)n2)c1` (centres undefined), the IC50 in assay [2] was above 50.1 µM; in assay [3] it was 22.6 µM. Moreover, the “Percent Effect” value with Schistosoma mansoni is on record as -1.507%.
For `O=C(c1ccc(Br)o1)N1CCN(Cc2ccc(OC(F)(F)F)cc2)CC1` the same measures were 40.6 µM, 27.8 µM and 71.06%.
For `CN(CCc1cccs1)C1CCCN(Cc2noc(C3CC3)n2)C1` (centres undefined), the IC50 in assay [2] and in assay [3] was above 50.1 µM throughout. In addition, the “Percent Effect” value in the assay with Schistosoma mansoni is -35.96%.
As for `OCC1CCCN1c1cc(NCCc2c[nH]c3ccccc23)ncn1` (centres undefined), the IC50 in assay [2] is 12.9 µM; in assay [3] it was 21.4 µM. Further, the “Percent Effect” value in the assay with Schistosoma mansoni stood at 50.05%.
For `Cc1cc(N(C)Cc2cc(C)on2)n2nc(C)c(C)c2n1`, the IC50 is 33.7 µM in assay [2] and 13.5 µM in assay [3]. Besides, the “Percent Effect” value with Schistosoma mansoni is -4.677%.
With `NS(=O)(=O)N1CCc2ccc(NC(=O)Cc3ccc(F)cc3)cc21`, the IC50 on ClpP1P2 is 27.5 µM. Besides, in the assay on Schistosoma mansoni, the “Percent Effect” value was -30.69%.
As to `Brc1cc2c(cc1CN1CCC(N3CCCCC3)CC1)OCCO2`, the IC50 in assay [2] is above 50.1 µM; in assay [3], 19.9 µM. Besides, the “Percent Effect” value in the assay with Schistosoma mansoni is -13%.
In the case of `O=C(CSc1nncs1)N1CCN(Cc2ccc(Cl)s2)CC1`, the figures for the IC50 in assay [2] and in assay [3] were 41.1 µM and 48.2 µM, respectively. Also, the “Percent Effect” value in the assay on Schistosoma mansoni was -37.37%.
As to `Cn1cnc(S(=O)(=O)N2CCN(Cc3ccco3)CC2)c1Cl`, in the assay with Schistosoma mansoni, the “Percent Effect” value was -70.1%.
On to `c1ccc(C2CCCN2Cc2nnnn2C2CC2)cc1` (centres undefined), for which, in the assay on Schistosoma mansoni, the “Percent Effect” value is recorded as -33.61%.
Take `CC1CN(C)c2ccccc2CN1C(=O)c1ccc[nH]1` (centres undefined): in the assay on Schistosoma mansoni, the “Percent Effect” value is recorded as -38.54%.
In the case of `CCc1ccc(C(=O)Nc2ccc(CC3CC(=O)NC3=O)cc2)cc1` (centres undefined), the “Percent Effect” value in the assay on Schistosoma mansoni is reported as -47.76%.
Regarding `O=C(NC[C@@H]1CCCN1)c1cc(COc2cccc(C(F)(F)F)c2)[nH]n1`, the “Percent Effect” value with Schistosoma mansoni is given as 73.28%.
Turning to `CCc1nnc(CN(C)c2nc(C(C)C)nc3c2cnn3C)o1`, in the assay on Schistosoma mansoni, the “Percent Effect” value is on record as -37.68%.
Take `Cc1ccc(N2CCN(C(=O)COc3ccccc3)CC2)nn1`: the “Percent Effect” value in the assay on Schistosoma mansoni is given as -51.88%.
For `CCSCC(C)NCc1nncn1C1CCCCC1` (centres undefined), the “Percent Effect” value in the assay on Schistosoma mansoni stood at 1.244%.
Regarding `c1cc(C2CCCN2Cc2nnnn2C2CC2)cs1` (centres undefined), in the assay on Schistosoma mansoni, the “Percent Effect” value is -76.39%.
As for `O=C(NCC(Cc1cccc(F)c1)N1CCCC1=O)c1cnccn1` (centres undefined), in the assay on Schistosoma mansoni, the “Percent Effect” value was 3.976%.
Regarding `CCCNC(=O)CNC(=O)CCc1ccccc1Br`, in the assay with Schistosoma mansoni, the “Percent Effect” value is reported as 24.36%.
Regarding `CSCC[C@H](N)C(=O)NCc1cc2n(n1)CCCN(C1CCCCC1)C2`, the “Percent Effect” value in the assay with Schistosoma mansoni is recorded as -26.84%.
Regarding `O=C(CCc1cc2n(n1)CCCN(C(=O)c1ccccn1)C2)NC1CC1`, the “Percent Effect” value in the assay on Schistosoma mansoni is on record as -25.84%.
As to `COc1ccccc1OCC(=O)Nc1ncccc1Cl`, in the assay on Schistosoma mansoni, the “Percent Effect” value was -2.169%.
With `CCCc1n[nH]c(C2CN(C(=O)CCCn3cccn3)CCO2)n1` (centres undefined), the “Percent Effect” value in the assay with Schistosoma mansoni is -21.33%.
For the compound `CN(C)C(=O)N1CCn2nc(CNC(=O)CCC(F)(F)F)cc2C1`, the “Percent Effect” value in the assay with Schistosoma mansoni is 2%.
On to `CCc1c(C)sc(NC(=O)CN2CCN(CC)CC2)c1C(=O)OC`, for which the IC50 in assay [2] is 15.4 µM; in assay [3], 2.52 µM. In addition, in the assay with Schistosoma mansoni, the “Percent Effect” value is given as 98.89%.
As to `CC[C@@]1(O)CCN(C(=O)c2ccc(-c3cccc(F)c3)cc2)C[C@H]1O`, the “Percent Effect” value in the assay with Schistosoma mansoni came out at 16.9%.
Regarding `Cc1cncc(C(=O)N2CCCC(C(=O)CCc3ccccc3)C2)c1` (centres undefined), the “Percent Effect” value in the assay with Schistosoma mansoni was -9.118%.
Still for that read-out and setting: the result for `CCc1cnc2c(c1NCc1ccncc1)c(=O)n(C)c(=O)n2C` reads -33.12%; that for `CC(C)c1nnc2n1CC(CNCc1ccncc1)CC2` (centres undefined), -34.29%.
Take `CCNS(=O)(=O)c1ccc(C)c(C(=O)N(C)Cc2ccco2)c1`: the “Percent Effect” value in the assay with Schistosoma mansoni was -32.86%.
The same measure, in the same setting: for `CC1CN(C)c2ccccc2CN1C(=O)c1ccncc1` (centres undefined) the value was -35.26%.
In the case of `Cn1ncc2c(NCCOc3ccc(F)cc3)nc(C3CCCC3)nc21`, the “Percent Effect” value in the assay on Schistosoma mansoni was determined as 106.6%.
`O=C(c1cc(=O)[nH]c(=O)[nH]1)N1CCCCC1c1ccc(F)cc1` (centres undefined): the “Percent Effect” value with Schistosoma mansoni is on record as -6.768%.
On to `COc1ccc(C2CCCN2C(=O)NCCNc2ncccn2)cc1` (centres undefined), for which the “Percent Effect” value in the assay on Schistosoma mansoni is recorded as -55.34%.

For the origin of these results see ChEMBL document CHEMBL3988442, “University of Dundee, Small-Polar-MMV Screening Library” (2021).
